From patent US20130096054A1, “LATENT HUMAN IMMUNODEFICIENCY VIRUS REACTIVIATION” (priority 2010, published 2013)
Values joined by “and” are separate entries in the source; they are usually repeats but may differ in a detail not shown here. Equal entries are not always repeated. *1 amine or outer side, *2 acyl side, *3 side chain or, on linkers, in order; H or OH if unused. Where a SMILES comes first, the peptide text is derived from it. Bridges are numbered along the chain shown (N, C = ends). Roman numbers before positions name the chains, in order. [ ]: non-standard residue; d: D form. Actinocin(9to1) = Cc1c2oc3c(C)ccc(C(=O)[*:1])c3nc-2c(C(=O)[*:2])c(N)c1=O; NMeV = CN[C@H](C(=O)O)C(C)C; Sar = CNCC(=O)O

Experiments:
[1] = test system: latently HIV-1 infected J89GFP T cells; test: HIV-1 reactivation in latently HIV-1 infected J89GFP T cells (flow cytometry / HTS); format: cell-based
Protocol: (§1) Infection levels in the cell cultures were monitored by flow cytometric (FCM) analysis of GFP expression. FCM analysis was performed on a GUAVA EasyCyte (GUAVA Technologies, Inc.; Millipore; Billerica, Mass.) and a BD FACSCalibur or a LSR11 (Becton & Dickinson; Franklin Lakes, N.J.). Cell sorting experiments were performed using a FACSAria™ Flow Cytometer (Becton&Dickinson). Data analysis was performed using either CellQuest (Becton&Dickinson) or GUAVA Express (GUAVA Technologies, Inc.).

[2] = test system: chronically actively infected T cell lines JNLG#35 and JNLG#44; test: Active HIV-1 transcription in chronically actively infected GFP-reporter T cells (GFP MCF); format: cell-based; conditions: 48 hours after addition
Protocol: Changes in HIV-1 transcription levels were determined after 48 hours by measuring GFP mean channel fluorescence intensity (GFP MCF). GFP MCF was plotted over the drug concentration for dactinomycin (FIG. 12A), the DNA intercalators daunorubicin (DM) (FIG. 12B) and rebeccamycin (RM) (FIG. 12C), as well as the transcription inhibitors ICRF-193 (FIG. 12D), DRB (FIG. 12E) and α-amanitin (FIG. 12F). The size of symbols indicates the respective cell viability in the sample (size range adjusted to 5-95%).
For this purpose, each of the compounds was titrated over a relevant range of concentrations on two chronically actively infected T cell lines (JNLG#35 and JNLG#44). These clonal cell lines are infected with a GFP-reporter virus. Forty eight hours after addition of the compounds, the effect of each compound on HIV-1 transcription was determined by flow cytometric analysis quantifying GFP mean channel fluorescence intensity (MCF).

[3] = test system: latently HIV-1 infected CA5 T cells
Protocol: CA5 T cells were pretreated with increasing concentrations of dactinomycin (DM) (FIG. 11A), the DNA intercalator daunorubicin (DR) (FIG. 11B), or the transcription inhibitors DRB (FIG. 11 C) and α-amanitin (FIG. 11D) (concentrations indicated). The cells were then left unstimulated (white circles) or activated with a sub-optimal concentration of HRF (black circles). Reactivation levels were determined as the percentage of GFP-positive cells 24 hours after stimulation. Viability of the cells correlates with the size of the symbol (size range adjusted to 5-95%).
Infection levels in the cell cultures were monitored by flow cytometric analysis of EGFP expression. Flow cytometric analysis was performed on a GUAVA EasyCyte (Millipore; Billerica, Mass.), or a LSRII (Becton & Dickinson; Franklin Lakes, N.J.).
Bacteria from various sources were isolated on TSA II agar plates containing 5% sheep blood. Bacterial isolates were then grown in RPMI 1640 medium supplemented with 10% FBS. After two days of incubation at 37° C. bacteria were pelleted and resuspended in RPMI medium to an optical density (OD600) of 8, aliquoted and frozen at −80° C. Unless otherwise indicated, Massilia timonae was grown in RPMI 1640 medium supplemented with 10% FBS. Typically, medium was inoculated with Massilia timonae from frozen stocks to an OD600 of 0.01. After 48 hours at 37° C., the culture was centrifuged at 3200 g to separate bacteria from the culture medium. Bacteria were resuspended in fresh medium to an OD600 of 8 and frozen to be used as references and stock cultures. The supernatant was then centrifuged at 10,000 g for 20 minutes and sterilized by passage through an 0.2 μm PVDF filter with low protein binding ability. HRF activity was determined by its ability to reactivate latent HIV-1 infection in CA5 cells. Only supernatants of which 6 μl reactivated infection in at least 60% of CA5 cells were used to study HRF properties.
as §1
To identify the optimal concentration of dactinomycin, CA5 T cells were pretreated with increasing concentrations of dactinomycin (0.0001 and 1 μg/ml), and then left untreated or stimulated with a sub-optimal concentration of HRF or TNF-α. […] Twenty four hours after activator addition, levels of HIV-1 reactivation were determined as the percentage of GFP-positive cells using flow cytometric analysis, which allowed for the simultaneous determination of cell viability.

[4] = test system: latently HIV-2 infected J2574 reporter T cells (HIV-2 7312A); test: Reactivation of latent HIV-2 infection in J2574 reporter T cells; format: cell-based
Protocol: J2574 reporter T cells were infected with HIV-2 7312A and a latently infected cell population was established (>90% latently infected cells). The cell population was then pretreated with varying concentrations of dactinomycin (0-8 ng/ml) for 18 hours and then either left untreated (C) or stimulated with a sub-optimal dose of HRF, which by itself triggered reactivation in 10% of the cells. Reactivation levels were determined 24 hours post HRF activation by quantifying the level of GFP-positive cells using flow cytometric analysis.
J2574 reporter T cells were generated by retrovirally transducing Jurkat T cells with a HIV-1 reporter construct (p2574) in which the HIV-1 LTR controls the expression of GFP. The HIV-1 LTR and the GFP gene are separated by a 2,500 base pair (bp) spacer element. Lentiviral particles were produced by transfecting 293T cells with p2574 and supplying gag-pol-rev-tat in trans. VSV-G was used as viral envelope protein. Following lentiviral transduction of Jurkat cells, all cells that spontaneously expressed GFP were removed by cell sorting. The GFP-negative population was then activated with PMA to identify all cells that would harbor an inducible LTR-GFP-LTR integration event. Cells that turned GFP-positive following stimulation were again selected by cell sorting. GFP expression in this population ceased after a few days leaving a population of GFP-negative reporter cells. The amount of founder cells for this population is calculated to represent >50,000 individual integration events.
To determine the ability of dactinomycin to prime a latent HIV-2 infection, a latently HIV-2 infected population of GFP reporter T cells were tested. Briefly, to create the latent HIV-2 infected population, J2574 reporter cells were infected with HIV-2 7312A and a population of latently HIV-2 infected cells was generated by removing the actively infected, GFP-positive cells using a fluorescence activated cell sorter.

[5] = test system: latently HIV-1 infected EF7 cells; test: HIV-1 reactivation in latently HIV-1 infected EF7 T cells (converse sense integration); format: cell-based; conditions: TNF-α after 4 ng/ml dactinomycin for 18 hours
Protocol: FIGS. 13A-B show the effect of dactinomycin on latent infection as a function of the orientation of integration relative to the direction of host-gene transcription. HIV-1 can integrate in the same transcriptional orientation as the host-gene or in the converse sense. Two latently HIV-1 infected T cell lines, which were determined to have HIV-1 integrated in the same sense orientation (CA5 cells) (FIG. 13A) and in the converse sense orientation (EF7 cells) (FIG. 13B) were used. For either cell line, the host-gene name, the position of integration and the chromosome number is given. For either T cell line, reactivation levels achieved by TNF-α treatment alone or by TNF-α stimulation following pretreatment with 4 ng/ml dactinomycin for 18 hours are shown. Reactivation levels were determined using flow cytometric analysis for GFP expression. The gray dotted line represents maximum achievable reactivation levels using PMA.

[6] = test system: latently HIV-1 infected reporter T cell lines (5F3, 8E12, CA5 and 12D4); test: HIV-1 reactivation in latently HIV-1 infected reporter T cell lines (EGFP, flow cytometry); format: cell-based
Protocol: FIGS. 1A and 1B show culture supernatants from Massilia timonae reactivate latent HIV-1 infection. […] Untreated control cells and HRF-treated cells were subjected to flow cytometric analysis to determine enhanced green fluorescent protein (EGFP) expression as a direct and quantitative marker of HIV-1 expression 24 hours post stimulation. FSC/SSC dot plots are represented to evaluate cell viability as a function of changes in the FSC (cell size)—SSC (granularity) phenotype of the cells. FIG. 1B is a histogram showing the reproducibility of the observed HIV-1 reactivation. Three independent preparations of HRF (batches HRF1-3) on four different latently infected T cell lines (5F3, 8E12, CA5 and 12D4) were tested. The percentage of EGFP positive cells following stimulation is depicted in the histogram. Cell culture supernatants of Pseudomonas aeruginosa cultures, grown under similar conditions, were used as specificity controls.

[7] = test system: latently HIV-1 infected monocytic THP89GFP cells; test: HIV-1 reactivation in latently HIV-1 infected monocytic THP89GFP cells; format: cell-based
[8] = target: T1, positive transcription elongation factor (P-TEFb), a complex of CDK9 and Cyclin T1 (UniProt P50750 1-372; O60563 1-726); test: glycerol gradient (10-45%) sedimentation of J89GFP cell lysates, Western blot of fractions with anti-CDK9 and anti-HEXIM-1
T1 construct: also called CDK9/CycT1; small complex
T1 sequence (P50750 whole entry, chain 1 of 2): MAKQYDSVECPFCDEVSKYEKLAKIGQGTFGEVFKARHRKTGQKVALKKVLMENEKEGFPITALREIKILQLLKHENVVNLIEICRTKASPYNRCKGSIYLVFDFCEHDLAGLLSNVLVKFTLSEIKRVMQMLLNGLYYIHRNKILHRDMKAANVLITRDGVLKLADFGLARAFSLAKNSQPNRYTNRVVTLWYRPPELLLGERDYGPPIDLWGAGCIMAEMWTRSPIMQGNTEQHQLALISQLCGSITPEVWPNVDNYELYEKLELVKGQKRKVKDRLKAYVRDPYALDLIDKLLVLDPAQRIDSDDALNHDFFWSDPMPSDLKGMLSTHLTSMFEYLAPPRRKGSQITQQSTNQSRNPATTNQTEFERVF
T1 sequence (O60563 whole entry, chain 2 of 2): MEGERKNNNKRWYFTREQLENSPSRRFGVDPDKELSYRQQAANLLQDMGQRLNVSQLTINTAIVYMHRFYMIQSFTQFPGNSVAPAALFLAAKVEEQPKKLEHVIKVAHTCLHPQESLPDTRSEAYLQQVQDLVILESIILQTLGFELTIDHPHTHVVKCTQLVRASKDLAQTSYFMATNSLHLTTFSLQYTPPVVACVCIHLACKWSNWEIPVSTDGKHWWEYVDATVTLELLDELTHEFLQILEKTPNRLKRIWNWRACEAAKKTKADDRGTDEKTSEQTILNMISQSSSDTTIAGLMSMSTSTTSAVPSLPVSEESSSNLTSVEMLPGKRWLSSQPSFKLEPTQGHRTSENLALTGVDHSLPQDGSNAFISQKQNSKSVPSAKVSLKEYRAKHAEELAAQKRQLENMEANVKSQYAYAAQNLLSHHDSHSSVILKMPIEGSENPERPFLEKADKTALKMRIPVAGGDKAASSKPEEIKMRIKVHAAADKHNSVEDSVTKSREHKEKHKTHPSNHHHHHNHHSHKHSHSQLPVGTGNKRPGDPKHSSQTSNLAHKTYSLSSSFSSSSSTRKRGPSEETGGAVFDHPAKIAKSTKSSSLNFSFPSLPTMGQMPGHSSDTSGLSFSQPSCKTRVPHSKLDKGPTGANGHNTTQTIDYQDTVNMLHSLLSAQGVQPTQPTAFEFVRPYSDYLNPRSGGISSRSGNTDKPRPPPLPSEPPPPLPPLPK
Protocol: Each gradient fraction was separated on a 10% SDS-PAGE gel and transferred by Western blot. […] Band densities were determined using ImageJ and are presented as relative band density. […] Band densities were determined using ImageJ and are presented as relative band density.
Ten million J89GFP or CA5 T cells were left untreated or treated with 0.004 μg/mL, […] 1 μg/mL dactinomycin for 18 hours or 1 hour, respectively. Cells were washed twice with cold PBS, then lysed for 30 minutes on ice in lysis buffer (0.5% TritonX100, 20 mM HEPES (pH7.9), 150 mM NaCl, 20 mM KCl, 2 mM MgCl2, 1 mM DTT, 0.2 mM EDTA, and protease inhibitor cocktail (P8340; SIGMA)), followed by centrifugation at 14,000 rpm for 10 minutes. The same amount of protein lysate was fractionated on 5 ml of a 10-45% glycerol gradient in lysis buffer in a SW-Ti55 rotor (Beckman Coulter; Miami, Fla.) for 16 hours at 45,000 rpm. Fractions were resolved on 10% SDS-PAGE and transferred to polyvinylidene fluoride membrane. The antibodies used for Western blotting were rabbit anti-Cdk9 (sc-484; Santa Cruz Biotechnology; Santa Cruz, Calif.) and rabbit anti-HEXIM1 (ab25388; Abcam; Cambridge, Mass.), respectively. […]

With `Cc1c2oc3c(C)ccc(C(=O)N[C@@H]4C(=O)N[C@H](C(C)C)C(=O)N5CCC[C@H]5C(=O)N(C)CC(=O)N(C)[C@@H](C(C)C)C(=O)O[C@@H]4C)c3nc-2c(C(=O)N[C@@H]2C(=O)N[C@H](C(C)C)C(=O)N3CCC[C@H]3C(=O)N(C)CC(=O)N(C)[C@@H](C(C)C)C(=O)O[C@@H]2C)c(N)c1=O` [dactinomycin] (I: T[dV]P[Sar][NMeV] / II: T[dV]P[Sar][NMeV]; ester I:1-I:C, II:1-II:C; linker I:N-II:N via Actinocin(9to1)) the “priming for reactivation in combination with sub-optimal TNF-α” value ([1]; 18 hours pretreatment) was “potently primed latent HIV-1 infection for reactivation”, the “HIV-1 reactivating capacity by itself” value ([1]; no activator) was “did not exhibit HIV-1 reactivating capacity by itself” and the “effect on active HIV-1 infection / transcription (GFP MCF)” value [2] was “without boosting active HIV-1 infection”. The “effect on active HIV-1 infection / transcription (GFP MCF)” value ([2]; listed as Dactinomycin) was “did not boost active infection, but rather inhibited active infection”, the “concentration at which it starts to act as an inhibitor of HIV-1 expression and reactivation (onset of drug toxicities)” value [3] was at least 10 ng/mL and the “priming effects with low concentrations of TNF-α or PMA as reactivating agents” value [3] was “also observed”. The “concentration of optimal priming activity” value ([3]; 18 hours pretreatment, then sub-optimal HRF or TNF-α) was “about 4 ng/ml and ~3.18 nM”, the “priming effect, virus integrated in same transcriptional orientation as host-gene” value ([3]; TNF-α after 4 ng/ml dactinomycin for 18 hours) was “exerted its priming effect in each integration scenario” and the “priming effect on HIV-1 reactivation by sub-optimal dose of HRF” value ([3]; pretreatment with increasing concentrations, then sub-optimal HRF) was “strong priming effect”. The “lowest concentration at which a priming effect was observed” value ([3]; then sub-optimal HRF or TNF-α) was 0.5 ng/mL, the “concentration range of efficient priming of latent HIV-2 infection” value ([4]; 18 hours pretreatment, then sub-optimal HRF) was 2 to 8 ng/mL and the “HIV-2 reactivation levels on costimulation” value ([4]; dactinomycin pretreatment plus sub-optimal HRF) was “up to 90%”. The “priming effect, virus integrated in converse transcriptional orientation” value [5] was “exerted its priming effect in each integration scenario”.

With lipopolysaccharide the “reactivation of latent HIV-1 infection” value [6] was “only reactivated HIV-1 infection in the latently HIV-1 infected monocytic THP89GFP cells” and the “reactivation of latent HIV-1 infection” value [7] was “reactivated HIV-1 infection”.

B1: HEXIM-1 (other, UniProt O94992 1-359, looked up)
chain: MAEPFLSEYQHQPQTSNCTGAAAVQEELNPERPPGAEERVPEEDSRWQSRAFPQLGGRPGPEGEGSLESQPPPLQTQACPESSCLREGEKGQNGDDSSAGGDFPPPAEVEPTPEAELLAQPCHDSEASKLGAPAAGGEEEWGQQQRQLGKKKHRRRPSKKKRHWKPYYKLTWEEKKKFDEKQSLRASRIRAEMFAKGQPVAPYNTTQFLMDDHDQEEPDLKTGLYSKRAAAKSDDTSDDDFMEEGGEEDGGSDGMGGDGSEFLQRDFSETYERYHTESLQNMSKQELIKEYLELEKCLSRMEDENNRLRLESKRLGGDDARVRELELELDRLRAENLQLLTENELHRQQERAPLSKFGD
B1: binds [8].
